Experimental data as given in patent US7183306B2, “Pyrazole derivatives” (Astellas Pharma Inc., priority 2002, dated 2007).

System: not given
Assay: not given
Settings: not given

SMILES | melting point [°C]
COCOc1ccc(-c2cc(S(C)(=O)=O)nn2-c2ccc(OC)cc2)cc1 | 128 to 128.1
COc1ccc(-n2nc(C(C)C)cc2-c2ccc(OCCNC(N)=O)cc2)cn1 | 106 to 107
CCN(C)C(=O)c1cc(-c2ccc(CCNS(C)(=O)=O)cc2)n(-c2ccc(OC)nc2)n1 | 137 to 138
COc1ccc(-n2nc(C#N)cc2-c2ccc(OCCNS(C)(=O)=O)cc2)cc1 | 149 to 153
CCN(C)C(=O)c1cc(-c2ccc(OCCO)cc2)n(-c2ccc(OC)nc2)n1 | 110 to 111
CCN(C)C(=O)c1cc(-c2ccc(OCCN)cc2)n(-c2ccc(OC)cc2)n1.Cl | 207 to 209
COc1ccc(-n2nc(C(=O)C(C)C)cc2-c2ccc(OCCN)cc2)cn1.Cl.Cl | 156 to 161
CCN(C)C(=O)c1cc(-c2ccc(OCCNC(N)=O)cc2)n(-c2ccc(OC)cc2)n1 | 108 to 113
COc1ccc(-n2nc(C#N)cc2-c2ccc(OCCNC(N)=O)cc2)cn1 | 173 to 176
COc1ccc(-n2nc(Cl)cc2-c2ccc(OCCO)cc2)cn1 | 136.5 to 138.2
COc1ccc(-n2nc(C3CC3)cc2-c2ccc(OCCO)cc2)cc1 | 142 to 144
COc1ccc(-n2nc(C(=O)C(C)C)cc2-c2ccc(OCCO)cc2)cn1 | 108 to 109
COc1ccc(-n2nc(C(C)C)cc2-c2ccc(OCCNS(C)(=O)=O)cc2)cn1 | 96 to 97
COc1ccc(-n2nc(Cl)cc2-c2ccc(OCCNS(C)(=O)=O)cc2)cn1 | 112 to 114
CCOc1cc(-c2ccc(OCCNS(C)(=O)=O)cc2)n(-c2ccc(OC)cc2)n1 | 146 to 147
COc1ccc(-n2nc(OCC(C)C)cc2-c2ccc(OCCNS(C)(=O)=O)cc2)cc1 | 164.3 to 165.2
COc1ccc(-n2nc(OC)cc2-c2ccc(OCCNS(C)(=O)=O)cc2)cn1 | 116 to 117.5
CCOc1cc(-c2ccc(OCCNS(C)(=O)=O)cc2)n(-c2ccc(OC)nc2)n1 | 122 to 122.6
CSc1ccc(-n2nc(C(F)F)cc2-c2ccc(OCCNS(C)(=O)=O)cc2)cc1 | 122.7 to 122.8
COc1ccc(-n2nc(C(F)F)cc2-c2ccc(CNS(C)(=O)=O)cc2)cn1 | 125.7 to 126.1
CCN(C)C(=O)c1cc(-c2ccc(OCCNS(C)(=O)=O)cc2)n(-c2ccc(OC)cc2)n1 | 106 to 106.3

SMILES | melting point [°C]
COc1ccc(-n2nc(OCC(F)F)cc2-c2ccc(OCCNS(C)(=O)=O)cc2)cc1 | 145 to 145.1
COc1ccc(-n2nc(Cl)cc2-c2ccc(OCCNS(=O)(=O)CCO)cc2)cc1 | 139.1 to 139.4
COc1ccc(-n2nc(C(=O)N3CCCCC3)cc2-c2ccc(CNS(C)(=O)=O)cc2)cn1 | 182.6 to 182.9
COc1ccc(-n2nc(C(=O)C(C)C)cc2-c2ccc(CNS(C)(=O)=O)cc2)cn1 | 160.8 to 161.2
COc1ccc(-n2nc(OC(C)C)cc2-c2ccc(OCCNC(N)=O)cc2)cn1 | 120
COc1ccc(-n2nc(OC(C)C)cc2-c2ccc(OCCNS(C)(=O)=O)cc2)cn1 | 121 to 121.6
CCOc1cc(-c2ccc(OCCO)cc2)n(-c2ccc(OC)cc2)n1 | 67.7 to 69.2
CCOc1cc(-c2ccc(OCCO)cc2)n(-c2ccc(OC)nc2)n1 | 81 to 82
COc1ccc(-n2nc(OCC(F)(F)F)cc2-c2ccc(OCCO)cc2)cn1 | 91.2 to 91.3
COc1ccc(-n2nc(N(C)C(=O)N(C)C)cc2-c2ccc(OCCNC(N)=O)cc2)cc1 | 158.6 to 159
COc1ccc(-n2nc(C(=O)N3CCCCC3)cc2-c2ccc(OCCNC(N)=O)cc2)cn1 | 164 to 167
CCN(C)C(=O)c1cc(-c2ccc(OCCNC(N)=O)cc2)n(-c2ccc(OC)nc2)n1 | 146.3 to 146.7
COc1ccc(-n2nc(C(=O)N3CCCCC3)cc2-c2ccc(CNC(N)=O)cc2)cn1 | 178.9
COc1ccc(-n2nc(Cl)cc2-c2ccc(CNC(N)=O)cc2)cn1 | 111 to 115
CSc1ccc(-n2nc(C(F)F)cc2-c2ccc(OCCNC(N)=O)cc2)cc1 | 184.3 to 184.7
COc1ccc(-n2nc(C(F)F)cc2-c2ccc(CCNC(N)=O)cc2)cn1 | 194 to 196
COc1ccc(-n2nc(C(=O)N3CCCCC3)cc2-c2ccc(OCCO)cc2)cc1 | 121.9 to 123.8
COc1ccc(-n2nc(OC)cc2-c2ccc(OCCNC(N)=S)cc2)cc1 | 141.6 to 142.3
COc1ccc(-n2nc(C(F)F)cc2-c2ccc(OCCNC(N)=O)cc2)cn1 [241] | 139 to 140
COc1ccc(-n2nc(C3CC3)cc2-c2ccc(OCCN)cc2)cc1.Cl [277] | 229 to 231
COc1ccc(-n2nc(C3CC3)cc2-c2ccc(OCCN)cc2)cc1.Cl [322] | 228 to 231

The next lines start with the values.

melting point [°C] | SMILES
91 to 92 | COc1ccc(-n2nc(C#N)cc2-c2ccc(OCCO)cc2)cc1
78 to 80 | COC(=O)NCCc1ccc(-c2cc(C(F)(F)F)nn2-c2ccc(OC)cc2)cc1
97 to 98 | COc1ccc(-n2nc(C(F)(F)F)cc2-c2ccc(CCNC(C)=O)cc2)cn1
127 to 128 | COc1ccc(-n2nc(C(F)(F)F)cc2-c2ccc(CCNS(N)(=O)=O)cc2)cc1
187 to 190 | COc1ccc(-n2nc(C#N)cc2-c2ccc(OCCNC(N)=O)cc2)cc1
104 to 106 | COc1ccc(-n2nc(S(C)(=O)=O)cc2-c2ccc(OCCN)cc2)cc1
131 to 132 | COc1ccc(-n2nc(C(F)(F)F)cc2-c2ccc(CCS(N)(=O)=O)cc2)cc1
139 to 140 | CNS(=O)(=O)CCc1ccc(-c2cc(C(F)(F)F)nn2-c2ccc(OC)nc2)cc1
121 to 122 | COc1ccc(-n2nc(C(F)(F)F)cc2-c2ccc(CCCS(C)(=O)=O)cc2)cn1
148 to 150 | COc1ccc(-n2nc(-c3nc(C)no3)cc2-c2ccc(CCO)cc2)cc1
82 to 86 | CO/N=C(\C)c1cc(-c2ccc(CCO)cc2)n(-c2ccc(OC)cc2)n1
169 to 170 | COc1ccc(-n2nc(C(F)(F)F)cc2-c2ccc(CCOC(N)=O)cc2)cc1
157 to 158 | COc1ccc(-n2nc(C(F)(F)F)cc2-c2ccc(CCNC(N)=O)cc2)cc1
165 to 167 | COc1ccc(-n2nc(S(C)(=O)=O)cc2-c2ccc(OCCNC(N)=O)cc2)cc1
131.3 to 131.4 | COc1ccc(-n2nc(OCC(F)(F)F)cc2-c2ccc(OCCNS(C)(=O)=O)cc2)cc1
100 to 104 | COc1ccc(-n2nc(C(C)C)cc2-c2ccc(OCCNC(N)=O)cc2)cc1
147 to 152 | COc1ccc(-n2nc(C(C)(C)O)cc2-c2ccc(OCCNC(N)=O)cc2)cc1
50.7 to 51.7 | COc1ccc(-n2nc(OCC(F)(F)F)cc2-c2ccc(OCCO)cc2)cc1
134.8 to 134.9 | COc1ccc(-n2nc(OCC(F)(F)F)cc2-c2ccc(OCCNC(N)=O)cc2)cn1
141.2 to 142.2 | COc1ccc(-n2nc(SC)cc2-c2ccc(OCCNC(N)=O)cc2)cc1
205 to 206 | COc1ccc(-n2nc(C(F)(F)F)cc2-c2ccc(CCNC(N)=O)cc2)cn1
150.5 to 151.1 | COc1ccc(-n2nc(C(F)(F)F)c(C)c2-c2ccc(OCCNC(N)=O)cc2)cc1

System: arthritic rats (adjuvant arthritis)
Assay: Analgesic activity: effect on adjuvant arthritis in rats (Randall-Selitto pain threshold)
Assay type: in vivo, Lewis rats
Settings: Rattus norvegicus, single dose, pain threshold of left hind paw 2 hrs after administration, threshold pressure of treated vs non-treated rats, ratio of 1.5 considered effective, read-out: The coefficient of analgesic

SMILES | response vs control in vivo at 3.2 mg/kg [%]
COc1ccc(-n2nc(C(F)(F)F)cc2-c2ccc(OCCN)cc2)cc1 [Example 267] | ≥ 150
